Laboratory results from patent publication US20210115036A1, “AZAINDOLES AND METHODS OF USE THEREOF” (GOLDFINCH BIO, INC., priority 2017, published 2021).
Like-named read-outs stand apart in the source and are kept apart here.

Target: T1, human TRPC5 (Homo sapiens, UniProt Q9UL62)
T1 construct: expressed in transfected cells; host or cells: HEK 293
T1 sequence (Q9UL62 1-973): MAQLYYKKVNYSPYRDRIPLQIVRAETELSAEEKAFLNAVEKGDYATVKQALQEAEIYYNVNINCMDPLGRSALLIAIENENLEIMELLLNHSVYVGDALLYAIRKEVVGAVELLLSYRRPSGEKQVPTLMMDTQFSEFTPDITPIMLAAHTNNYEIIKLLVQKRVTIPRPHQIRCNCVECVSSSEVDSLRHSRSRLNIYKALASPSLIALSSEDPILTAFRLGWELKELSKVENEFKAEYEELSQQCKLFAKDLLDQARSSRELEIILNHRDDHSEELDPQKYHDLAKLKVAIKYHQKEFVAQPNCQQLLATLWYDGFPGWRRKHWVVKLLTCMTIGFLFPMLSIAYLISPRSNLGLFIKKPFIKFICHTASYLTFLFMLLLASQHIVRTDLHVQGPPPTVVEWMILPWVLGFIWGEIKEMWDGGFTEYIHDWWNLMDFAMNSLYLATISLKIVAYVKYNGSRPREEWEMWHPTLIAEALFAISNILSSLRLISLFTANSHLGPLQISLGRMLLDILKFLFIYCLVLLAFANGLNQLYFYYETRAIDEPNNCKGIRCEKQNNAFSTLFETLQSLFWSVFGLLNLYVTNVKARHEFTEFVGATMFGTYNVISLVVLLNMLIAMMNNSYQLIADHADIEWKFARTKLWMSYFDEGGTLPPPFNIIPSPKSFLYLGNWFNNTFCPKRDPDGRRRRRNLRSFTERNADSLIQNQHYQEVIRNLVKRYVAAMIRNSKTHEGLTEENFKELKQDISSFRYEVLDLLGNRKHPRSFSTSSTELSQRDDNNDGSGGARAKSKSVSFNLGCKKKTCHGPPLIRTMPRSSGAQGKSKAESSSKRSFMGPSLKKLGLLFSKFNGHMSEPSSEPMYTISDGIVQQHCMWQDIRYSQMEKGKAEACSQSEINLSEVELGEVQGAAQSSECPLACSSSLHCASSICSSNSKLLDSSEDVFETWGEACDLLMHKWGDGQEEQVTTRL
Assay: Automated patch clamp assay (QPatch), current block after stimulation with rosiglitazone
Assay type: cell-based
Settings: HEK293 cells overexpressing TRPC5, whole cell automated patch
Method: HEK 293 cells expressing human TRPC5 were harvested, re-suspended in serum free medium, and added to the automated platform and used within 2-3 hours. Internal and external physiological solutions were freshly prepared prior to the assay. The external solution contained: 145 mM NaCl, 4 mM KCl, 2 mM CaCl2), 1 mM MgCl2, 10 mM HEPES, 10 mM glucose, pH 7.4 with NaOH and 300 mOsm/L. The internal solution contained 120 mM L-aspartic acid, 120 mM CsOH.H2O, 20 mM CsCl, 2 mM MgCl2, 8.8 mM CaCl2), 10 mM EGTA, 10 mM HEPES, 10 mM Glucose, 0.1 mM GTP and 2 mM Na2ATP; pH 7.2 with CsOH and 290 mOsm/L. The free internal Ca2+ concentration was buffered to 1 μM.
The automated electrophysiological platform QPatch 16 from Sophion (Denmark) was used to carry out the compounds profiling. The series resistance and quality of seals were continuously monitored during the experiments. Data was analyzed using Sophion QPatch assay software 5.6 (Odense). IC50 values were calculated using a least squares regression algorithm (Hill equation).
To monitor the ion currents, a voltage ramp from −100 mV to +100 mV, over 300 ms, was applied every 10 seconds, from a holding potential of −60 mV.
After recording for a minimum of 60 seconds control period, Rosiglitazone (30 uM), was applied to activate the channel.

[1] = 80 mV, 1-substituted 7-azaindoles, read-out: TRPC5 IC50 80 mV
[2] = 100 mV, 1-substituted 7-azaindoles, read-out: TRPC5 IC50 100 mV
[3] = 100 mV, 7-substituted 7-azaindoles, read-out: TRPC5 IC50 100 mV

Row | SMILES | IC50 [1] [µM] | IC50 [2] [µM] | IC50 [3] [µM]
1 | CC(C)(C)c1cc2cccnc2n1C[C@H]1CC[C@H](C)CC1 [drawing 112] | > 30 |  | 
2 | Cc1nn(C)cc1Cn1cccc2cc(C(C)(C)C)nc1-2 |  |  | 17.6
3 | CC(c1ccccc1)n1c(C(C)(C)C)cc2cccnc21 (stereo not drawn) | > 30 |  | 
4 | CC(C)(C)c1cc2cccn(Cc3cncc(F)c3)c-2n1 |  |  | 7.64
5 | CC(C)(C)c1cc2cccnc2n1CC1CCNCC1 | > 30 |  | 
6 | CC(C)(C)c1cc2cccnc2n1Cc1cncc(F)c1 | > 30 | > 30 | 
7 | OCc1cc2cccnc2n1Cc1ccccc1 | > 30 | > 30 | 
8 | CC(C)(C)Cc1cc2cccnc2n1Cc1ccccc1 | > 30 | > 30 | 
9 | Cc1ccc2cc(C(C)(C)C)n(Cc3ccccc3)c2n1 | > 30 |  | 
10 | CC(C)(C)c1cc2cccnc2n1C[C@H]1CC[C@H](C)CC1 [drawing 113] |  | > 30 | 
11 | CC(C)(C)c1cc2cccnc2n1Cc1ccc(Cl)cc1 | > 30 |  | 
12 | CN(C)CCc1cc2cccnc2n1Cc1ccccc1 | > 30 | > 30 | 
13 | CC(C)(C)c1cc2cccnc2n1CC1CCN(Cc2ccccc2)CC1 | > 30 |  | 
14 | Cc1noc(C)c1Cn1cccc2cc(C(C)(C)C)nc1-2 |  |  | 15.6
15 | CC(C)(C)c1cc2cccn(Cc3cccnc3)c-2n1 [drawing 134] |  |  | 14.4
16 | c1ccc(Cn2c(CN3CCCC3)cc3cccnc32)cc1 | 17 | 16.6 | 

Row | SMILES | IC50 [1] [µM] | IC50 [2] [µM] | IC50 [3] [µM]
17 | CC(C)(C)c1cc2cccnc2n1CC1CCOCC1 | > 30 |  | 
18 | CC(C)(C)c1cc2cccnc2n1CC1CCCCC1 | > 30 |  | 
19 | Cc1nn(C)cc1Cn1c(C(C)(C)C)cc2cccnc21 | > 30 | > 30 | 
20 | CN1CCC(Cn2c(C(C)(C)C)cc3cccnc32)CC1 | > 30 |  | 
21 | COc1ccc(Cn2cccc3cc(C(C)(C)C)nc2-3)cc1 |  |  | 5.47
22 | OCCc1cc2cccnc2n1Cc1ccccc1 | > 30 | > 30 | 
23 | CC(C)(C)c1cc2cccnc2n1Cc1cccnc1 | > 30 | > 30 | 
24 | CC(C)(O)c1cc2cccnc2n1Cc1ccccc1 [drawing 81] |  | > 30 | 
25 | CC(C)Cc1cc2cccnc2n1Cc1ccccc1 [drawing 73] |  | > 30 | 
26 | Cn1nc(C(F)(F)F)cc1Cn1cccc2cc(C(C)(C)C)nc1-2 |  |  | 12.2
27 | CC(C)(C)c1cc2c(OCCCO)ccnc2n1Cc1ccccc1 | > 30 | > 30 | 
28 | COc1cccc(Cn2cccc3cc(C(C)(C)C)nc2-3)c1 [drawing 128] |  |  | 8.57
29 | COCCc1cc2cccnc2n1Cc1ccccc1 | > 30 | > 30 | 
30 | CC(C)(C)c1cc2cccn(Cc3ccc(Cl)cc3)c-2n1 [drawing 127] |  |  | 8.1
31 | Cc1ncc(Cn2c(C(C)(C)C)cc3cccnc32)cn1 | > 30 |  | 

Second part, the compound after the results:

Row | IC50 [1] [µM] | IC50 [2] [µM] | IC50 [3] [µM] | SMILES
32 | 18.3 | 21.6 |  | CN(C)Cc1cc2cccnc2n1Cc1ccccc1
33 | > 30 |  |  | CC(C)(C)c1cc2cccnc2n1CCOc1ccccc1
34 | > 30 |  |  | Cc1ccnc2c1cc(C(C)(C)C)n2Cc1ccccc1
35 | > 30 | > 30 |  | CC(C)(C)c1cc2cccnc2n1Cc1ccncc1
36 | 3.51 |  |  | CC(C)(C)c1cc2cccnc2n1Cc1ccccc1 [drawing 63]
37 | 23.6 | 25.2 |  | Clc1ccc(Cn2c(CN3CCCC3)cc3cccnc32)cc1
38 | > 30 |  |  | Cc1cc2cccnc2n1Cc1ccc(Cl)cc1
39 |  |  | 6.02 | CC(C)(C)c1cc2cccn(Cc3ccc(Cl)cc3)c-2n1 [drawing 125]
40 | > 30 | > 30 |  | COC(C)(C)c1cc2cccnc2n1Cc1ccccc1
41 | > 30 | > 30 |  | Cn1cc(Cn2c(C(C)(C)C)cc3cccnc32)c(C(F)(F)F)n1
42 | > 30 | > 30 |  | Cn1cc(Cn2c(C(C)(C)C)cc3cccnc32)cn1
43 | > 30 | > 30 |  | CC(C)(O)Cc1cc2cccnc2n1Cc1ccccc1
44 | > 30 | > 30 |  | Cc1noc(C)c1Cn1c(C(C)(C)C)cc2cccnc21
45 |  |  | 10.2 | COc1cccc(Cn2cccc3cc(C(C)(C)C)nc2-3)c1 [drawing 130]
46 |  |  | 10.4 | Cn1cc(Cn2cccc3cc(C(C)(C)C)nc2-3)c(C(F)(F)F)n1
47 | > 30 | > 30 |  | COc1cccc(Cn2c(C(C)(C)C)cc3cccnc32)c1
48 | > 30 |  |  | CC(=O)N1CCC(Cn2c(C(C)(C)C)cc3cccnc32)CC1
49 | > 30 |  |  | CC(C)(C)c1cc2cccnc2n1CCCc1ccccc1
50 | > 30 | > 30 |  | C[C@@H](c1ccccc1)n1c(C(C)(C)C)cc2cccnc21
51 | 6.24 | 4.19 |  | CCN(CC)Cc1cc2cccnc2n1Cc1ccccc1
52 | > 30 | > 30 |  | CC(C)(C)c1cc2cc(OCCCO)cnc2n1Cc1ccccc1

Row | IC50 [1] [µM] | IC50 [2] [µM] | IC50 [3] [µM] | SMILES
53 |  |  | > 30 | CC(C)(C)c1cc2cccn(Cc3ccncc3)c-2n1
54 | > 30 |  |  | COc1cc(Cl)ccc1Cn1c(C(C)(C)C)cc2cccnc21
55 | 13.8 | 8.52 |  | COC(C)(C)Cc1cc2cccnc2n1Cc1ccccc1
56 | > 30 | > 30 |  | COc1ccc(Cn2c(C(C)(C)C)cc3cccnc32)cc1
57 | > 30 |  |  | CC(C)(C)c1cc2ccc(OCCCO)nc2n1Cc1ccccc1
58 | > 30 |  |  | CC(C)(C)c1cc2cccnc2n1CCc1ccccc1
59 | > 30 |  |  | CC(C)(C)c1cc2cccnc2n1CC1CCN(S(C)(=O)=O)CC1
60 | > 30 |  |  | CC(C)(O)c1cc2cccnc2n1Cc1ccccc1 [drawing 80]
61 | > 30 |  |  | CC(C)(C)c1cc2cccnc2n1Cc1ccc(Cl)cc1C#N
62 | > 30 | > 30 |  | C[C@H](c1ccccc1)n1c(C(C)(C)C)cc2cccnc21
63 | 19.6 | 19.1 |  | Cn1nc(C(F)(F)F)cc1Cn1c(C(C)(C)C)cc2cccnc21
64 | > 30 |  |  | CC(C)(C)c1cc2ccc(OCCO)nc2n1Cc1ccccc1
65 | > 30 |  |  | Cc1cc2cccnc2n1Cc1ccccc1
66 |  |  | 22.2 | CC(C)(C)c1cc2cccn(C[C@H]3CC[C@H](C)CC3)c-2n1 [drawing 137]
67 |  |  | 9.79 | Cn1cc(Cn2cccc3cc(C(C)(C)C)nc2-3)cn1
68 | > 30 |  |  | CC(C)Cc1cc2cccnc2n1Cc1ccccc1 [drawing 72]
69 | > 30 |  |  | CC(C)(C)c1cc2cccnc2n1Cc1ccc(Cl)cn1
70 |  |  | 24.5 | CC(C)(C)c1cc2cccn(C[C@H]3CC[C@H](C)CC3)c-2n1 [drawing 138]
71 | 7.07 |  |  | CC(C)(C)c1cc2cccnc2n1Cc1ccccc1 [drawing 65]
72 | > 30 |  |  | Cc1ccc2cc(C(C)(C)C)n(C(=O)c3ccccc3)c2n1
73 |  |  | 14 | CC(C)(C)c1cc2cccn(Cc3cccnc3)c-2n1 [drawing 133]
